Earlier results on one compound are cited in US20220143126A1, “SYNERGISTIC COMBINATION OF PHYTOACTIVES” (priority 2019, published 2022).

The conditions of this series: rats, concomitant administration of curcumin with piperine.

For `COc1cc(/C=C/C(=O)CC(=O)/C=C/c2ccc(O)c(OC)c2)ccc1O` [curcumin], the increase in bioavailability is 150%.
